In ChEMBL document CHEMBL3991601, “The target landscape of clinical kinase drugs” (Science, 2017):
Calls of active or inactive are those of the source. Rule as the data show it, for most assays here: actives have a measured Kd and inactives only a lower limit.

What was measured:
[1] = target: T1, Phosphorylase b kinase gamma catalytic chain, liver/testis isoform (Homo sapiens, UniProt P15735)
T1 sequence (P15735 whole entry): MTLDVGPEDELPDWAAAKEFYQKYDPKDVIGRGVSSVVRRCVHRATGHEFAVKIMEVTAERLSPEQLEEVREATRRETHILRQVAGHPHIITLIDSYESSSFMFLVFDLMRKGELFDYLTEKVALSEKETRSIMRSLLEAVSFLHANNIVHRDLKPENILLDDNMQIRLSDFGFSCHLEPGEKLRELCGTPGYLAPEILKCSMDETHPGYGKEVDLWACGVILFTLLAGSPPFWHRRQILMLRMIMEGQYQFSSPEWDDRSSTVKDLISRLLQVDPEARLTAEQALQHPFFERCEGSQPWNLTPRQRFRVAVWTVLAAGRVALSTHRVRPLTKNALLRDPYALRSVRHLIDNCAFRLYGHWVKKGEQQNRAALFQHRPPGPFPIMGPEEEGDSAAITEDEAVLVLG

Deoxycytidine kinase = Deoxycytidine kinase (Homo sapiens, UniProt P27707)
Chain of Deoxycytidine kinase (P27707 whole entry): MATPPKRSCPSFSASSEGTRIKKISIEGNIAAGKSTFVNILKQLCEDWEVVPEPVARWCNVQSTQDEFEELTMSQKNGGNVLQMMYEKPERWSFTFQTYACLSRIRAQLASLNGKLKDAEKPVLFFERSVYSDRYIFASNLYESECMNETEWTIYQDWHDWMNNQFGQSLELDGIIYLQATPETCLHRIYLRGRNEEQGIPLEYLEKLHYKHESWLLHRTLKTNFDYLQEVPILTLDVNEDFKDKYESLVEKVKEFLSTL

[2] = target: Tyrosine-protein kinase JAK1 (Homo sapiens, UniProt P23458)
Chain of Tyrosine-protein kinase JAK1 (P23458 whole entry): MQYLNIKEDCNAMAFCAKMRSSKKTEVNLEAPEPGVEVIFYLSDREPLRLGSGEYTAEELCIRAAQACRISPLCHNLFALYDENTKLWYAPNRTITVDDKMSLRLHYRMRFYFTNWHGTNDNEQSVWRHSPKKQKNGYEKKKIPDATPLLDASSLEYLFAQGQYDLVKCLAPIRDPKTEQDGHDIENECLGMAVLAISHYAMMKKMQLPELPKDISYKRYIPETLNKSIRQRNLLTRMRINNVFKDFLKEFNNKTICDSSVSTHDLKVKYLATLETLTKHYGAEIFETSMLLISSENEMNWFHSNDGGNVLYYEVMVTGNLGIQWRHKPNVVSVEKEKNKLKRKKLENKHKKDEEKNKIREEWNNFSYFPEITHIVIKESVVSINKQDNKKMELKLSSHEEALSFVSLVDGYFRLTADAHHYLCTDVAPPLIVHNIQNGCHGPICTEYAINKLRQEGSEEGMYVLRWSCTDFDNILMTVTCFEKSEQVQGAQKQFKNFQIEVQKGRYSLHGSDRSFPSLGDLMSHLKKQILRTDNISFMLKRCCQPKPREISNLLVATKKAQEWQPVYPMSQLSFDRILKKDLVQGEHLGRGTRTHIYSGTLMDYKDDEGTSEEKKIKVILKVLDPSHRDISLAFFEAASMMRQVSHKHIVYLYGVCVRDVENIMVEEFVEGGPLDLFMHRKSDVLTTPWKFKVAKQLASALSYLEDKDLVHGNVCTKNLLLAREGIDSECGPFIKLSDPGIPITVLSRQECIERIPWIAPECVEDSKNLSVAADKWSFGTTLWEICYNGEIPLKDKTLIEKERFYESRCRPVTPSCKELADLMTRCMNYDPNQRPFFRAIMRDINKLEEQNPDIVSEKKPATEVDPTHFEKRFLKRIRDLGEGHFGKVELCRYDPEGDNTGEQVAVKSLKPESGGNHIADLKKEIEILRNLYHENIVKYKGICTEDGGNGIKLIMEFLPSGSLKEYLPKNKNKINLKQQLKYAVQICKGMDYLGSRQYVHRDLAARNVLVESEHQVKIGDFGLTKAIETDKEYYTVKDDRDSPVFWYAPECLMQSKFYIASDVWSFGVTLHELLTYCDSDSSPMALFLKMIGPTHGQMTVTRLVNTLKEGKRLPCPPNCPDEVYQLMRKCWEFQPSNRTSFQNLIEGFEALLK

[3] = target: T2, Cyclin-G-associated kinase (Homo sapiens, UniProt O14976)
T2 sequence (O14976 whole entry): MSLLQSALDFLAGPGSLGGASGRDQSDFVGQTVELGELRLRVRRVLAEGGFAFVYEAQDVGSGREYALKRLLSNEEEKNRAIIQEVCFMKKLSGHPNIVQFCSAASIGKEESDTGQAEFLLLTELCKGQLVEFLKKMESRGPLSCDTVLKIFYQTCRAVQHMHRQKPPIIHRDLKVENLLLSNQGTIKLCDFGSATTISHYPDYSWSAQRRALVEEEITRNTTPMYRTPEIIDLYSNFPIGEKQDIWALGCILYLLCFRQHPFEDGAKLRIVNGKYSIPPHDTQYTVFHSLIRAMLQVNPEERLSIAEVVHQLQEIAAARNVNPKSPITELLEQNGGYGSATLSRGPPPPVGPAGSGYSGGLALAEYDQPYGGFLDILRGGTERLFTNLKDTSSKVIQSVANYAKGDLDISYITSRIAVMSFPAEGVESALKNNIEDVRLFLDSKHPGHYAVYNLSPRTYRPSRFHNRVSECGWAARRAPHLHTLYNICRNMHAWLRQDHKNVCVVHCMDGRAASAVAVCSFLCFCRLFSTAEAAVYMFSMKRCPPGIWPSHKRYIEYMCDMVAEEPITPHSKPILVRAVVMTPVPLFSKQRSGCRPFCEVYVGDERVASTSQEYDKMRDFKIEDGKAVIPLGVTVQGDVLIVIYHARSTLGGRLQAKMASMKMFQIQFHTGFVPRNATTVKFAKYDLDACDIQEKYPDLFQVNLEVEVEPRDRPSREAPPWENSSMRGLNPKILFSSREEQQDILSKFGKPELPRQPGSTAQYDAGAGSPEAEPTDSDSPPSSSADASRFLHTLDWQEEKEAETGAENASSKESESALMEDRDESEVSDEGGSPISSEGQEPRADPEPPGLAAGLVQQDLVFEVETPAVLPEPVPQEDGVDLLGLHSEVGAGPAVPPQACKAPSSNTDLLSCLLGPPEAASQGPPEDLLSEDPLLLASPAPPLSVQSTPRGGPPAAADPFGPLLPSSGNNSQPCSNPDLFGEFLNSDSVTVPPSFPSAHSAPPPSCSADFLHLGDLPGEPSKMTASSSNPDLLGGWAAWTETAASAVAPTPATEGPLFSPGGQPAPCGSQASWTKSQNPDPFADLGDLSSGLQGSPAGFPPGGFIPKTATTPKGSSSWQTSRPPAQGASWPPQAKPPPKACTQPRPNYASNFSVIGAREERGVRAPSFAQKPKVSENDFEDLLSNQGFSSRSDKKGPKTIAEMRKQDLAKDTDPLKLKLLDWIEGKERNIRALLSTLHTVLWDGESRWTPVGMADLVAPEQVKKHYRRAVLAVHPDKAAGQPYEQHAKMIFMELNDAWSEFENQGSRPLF

[4] = target: Casein kinase II subunit alpha' (Homo sapiens, UniProt P19784)
Chain of Casein kinase II subunit alpha' (P19784 whole entry): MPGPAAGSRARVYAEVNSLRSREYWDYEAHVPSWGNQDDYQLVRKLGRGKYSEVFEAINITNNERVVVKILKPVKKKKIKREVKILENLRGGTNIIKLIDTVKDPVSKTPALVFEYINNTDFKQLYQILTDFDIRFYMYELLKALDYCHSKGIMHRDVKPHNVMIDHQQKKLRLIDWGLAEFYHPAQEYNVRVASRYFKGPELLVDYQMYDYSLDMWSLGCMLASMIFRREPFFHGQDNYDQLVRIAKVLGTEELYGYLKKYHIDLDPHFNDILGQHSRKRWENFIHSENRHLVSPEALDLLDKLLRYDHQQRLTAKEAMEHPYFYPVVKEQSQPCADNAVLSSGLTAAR

Ephrin type-A receptor 5 = Ephrin type-A receptor 5 (Homo sapiens, UniProt P54756)
Chain of Ephrin type-A receptor 5 (P54756 whole entry): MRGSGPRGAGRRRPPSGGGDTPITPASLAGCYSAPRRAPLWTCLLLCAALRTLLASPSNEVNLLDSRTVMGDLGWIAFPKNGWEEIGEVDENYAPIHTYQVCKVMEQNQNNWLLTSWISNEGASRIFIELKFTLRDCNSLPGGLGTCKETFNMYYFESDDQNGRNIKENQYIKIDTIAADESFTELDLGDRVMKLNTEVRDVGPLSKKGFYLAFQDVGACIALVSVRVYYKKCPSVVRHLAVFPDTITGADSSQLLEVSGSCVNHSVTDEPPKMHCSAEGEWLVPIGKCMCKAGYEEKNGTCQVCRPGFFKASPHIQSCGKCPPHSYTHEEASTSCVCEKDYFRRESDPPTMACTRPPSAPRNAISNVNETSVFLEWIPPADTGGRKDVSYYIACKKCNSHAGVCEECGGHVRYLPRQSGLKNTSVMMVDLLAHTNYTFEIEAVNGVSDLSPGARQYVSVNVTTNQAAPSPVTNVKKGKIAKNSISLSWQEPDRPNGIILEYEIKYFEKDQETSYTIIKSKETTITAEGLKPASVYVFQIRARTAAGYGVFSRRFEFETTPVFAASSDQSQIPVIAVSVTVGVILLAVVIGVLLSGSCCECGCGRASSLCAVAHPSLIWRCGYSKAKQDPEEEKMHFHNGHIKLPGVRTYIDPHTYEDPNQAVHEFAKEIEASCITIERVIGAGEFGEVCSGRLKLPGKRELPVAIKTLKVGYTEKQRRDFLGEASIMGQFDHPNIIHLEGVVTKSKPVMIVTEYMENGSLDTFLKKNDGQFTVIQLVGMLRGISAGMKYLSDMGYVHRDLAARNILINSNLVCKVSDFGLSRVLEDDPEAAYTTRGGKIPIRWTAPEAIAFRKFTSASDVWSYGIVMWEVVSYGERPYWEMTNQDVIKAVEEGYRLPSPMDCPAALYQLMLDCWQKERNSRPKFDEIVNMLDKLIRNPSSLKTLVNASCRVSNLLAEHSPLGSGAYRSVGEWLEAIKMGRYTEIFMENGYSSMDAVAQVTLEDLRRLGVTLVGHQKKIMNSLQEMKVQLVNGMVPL

[5] = target: T3, Mitogen-activated protein kinase kinase kinase kinase 2 (Homo sapiens, UniProt Q12851)
T3 sequence (Q12851 whole entry): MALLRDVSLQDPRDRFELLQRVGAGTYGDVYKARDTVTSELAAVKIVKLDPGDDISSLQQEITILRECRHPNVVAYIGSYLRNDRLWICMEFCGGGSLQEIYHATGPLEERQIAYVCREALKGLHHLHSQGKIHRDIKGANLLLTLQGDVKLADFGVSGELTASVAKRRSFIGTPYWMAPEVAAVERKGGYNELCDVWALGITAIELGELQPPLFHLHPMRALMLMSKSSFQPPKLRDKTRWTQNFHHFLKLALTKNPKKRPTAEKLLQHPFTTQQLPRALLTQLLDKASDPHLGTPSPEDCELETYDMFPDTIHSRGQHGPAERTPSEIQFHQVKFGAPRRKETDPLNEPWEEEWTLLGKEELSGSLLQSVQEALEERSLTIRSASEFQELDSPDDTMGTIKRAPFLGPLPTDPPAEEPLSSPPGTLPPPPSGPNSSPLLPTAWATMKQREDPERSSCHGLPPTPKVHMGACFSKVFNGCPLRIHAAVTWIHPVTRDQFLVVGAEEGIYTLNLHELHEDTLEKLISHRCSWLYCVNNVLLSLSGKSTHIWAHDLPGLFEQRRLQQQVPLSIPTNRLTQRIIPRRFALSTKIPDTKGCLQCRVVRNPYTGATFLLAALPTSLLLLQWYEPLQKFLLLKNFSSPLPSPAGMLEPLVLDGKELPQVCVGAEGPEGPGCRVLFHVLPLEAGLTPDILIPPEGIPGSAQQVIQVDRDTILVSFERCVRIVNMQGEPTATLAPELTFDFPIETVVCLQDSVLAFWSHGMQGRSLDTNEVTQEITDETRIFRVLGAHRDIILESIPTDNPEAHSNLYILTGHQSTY
Also: in the data inactive means no Kd found up to 30 µM.

## CO[C@H]1C[C@@H]2CC[C@@H](C)[C@@](O)(O2)C(=O)C(=O)N2CCCC[C@H]2C(=O)O[C@H]([C@H](C)C[C@@H]2CC[C@@H](OCCO)[C@H](OC)C2)CC(=O)[C@H](C)/C=C(\C)[C@@H](O)[C@@H](OC)C(=O)[C@H](C)C[C@H](C)/C=C/C=C/C=C/1C [EVEROLIMUS]
[1]
  Kd: > 30 µM (inactive)
Deoxycytidine kinase
  Kd: > 30 µM (inactive)
[2]
  Kd: > 30 µM (inactive)
[3]
  Kd: > 30 µM (inactive)
[4]
  Kd: > 30 µM (inactive)
Ephrin type-A receptor 5
  Kd: > 30 µM (inactive)
[5]
  Kd: > 30 µM (inactive)

## CC(C)Nc1cc(-c2c[nH]c(C(=O)N[C@H](CO)c3cccc(Cl)c3)c2)c(Cl)cn1 [ULIXERTINIB]
[1]
  Kd: > 30 µM (inactive)
Deoxycytidine kinase
  Kd: > 30 µM (inactive)
[2]
  Kd: > 30 µM (inactive)
[3]
  Kd: > 30 µM (inactive)
[4]
  Kd: > 30 µM (inactive)
Ephrin type-A receptor 5
  Kd: > 30 µM (inactive)
[5]
  Kd: > 30 µM (inactive)

## Cc1ccc(-n2nc(C(C)(C)C)cc2NC(=O)NCc2cc(F)ccc2Oc2ccc3c(cnn3CCO)c2)cc1 [PEXMETINIB]
[1]
  Kd: > 30 µM (inactive)
Deoxycytidine kinase
  Kd: > 30 µM (inactive)
[2]
  Kd: > 30 µM (inactive)
[3]
  Kd: > 30 µM (inactive)
[4]
  Kd: > 30 µM (inactive)
Ephrin type-A receptor 5
  Kd: > 30 µM (inactive)
[5]
  Kd: > 30 µM (inactive)

## CC(=O)Nc1cccc(-n2c(=O)n(C3CC3)c(=O)c3c(Nc4ccc(I)cc4F)n(C)c(=O)c(C)c32)c1 [TRAMETINIB]
[1]
  Kd: > 30 µM (inactive)
Deoxycytidine kinase
  Kd: > 30 µM (inactive)
[2]
  Kd: > 30 µM (inactive)
[3]
  Kd: > 30 µM (inactive)
[4]
  Kd: > 30 µM (inactive)
Ephrin type-A receptor 5
  Kd: > 30 µM (inactive)
[5]
  Kd: > 30 µM (inactive)

## COC(=O)N[C@@H](C)CNc1nccc(-c2cn(C(C)C)nc2-c2cc(Cl)cc(NS(C)(=O)=O)c2F)n1 [ENCORAFENIB]
[1]
  Kd: > 30 µM (inactive)
Deoxycytidine kinase
  Kd: > 30 µM (inactive)
[2]
  Kd: > 30 µM (inactive)
[3]
  Kd: > 30 µM (inactive)
[4]
  Kd: > 30 µM (inactive)
Ephrin type-A receptor 5
  Kd: > 30 µM (inactive)
[5]
  Kd: > 30 µM (inactive)

## O=C(Nc1ccc(-c2ccnc(Nc3ccc(N4CCOCC4)cc3)n2)cc1)C1CCCN1 (centres undefined) [XL-019]
[1]
  Kd: > 30 µM (inactive)
Deoxycytidine kinase
  Kd: > 30 µM (inactive)
[2]
  Kd: > 30 µM (inactive)
[3]
  Kd: 0.05 µM (active)
[4]
  Kd: 7.15 µM (active)
Ephrin type-A receptor 5
  Kd: > 30 µM (inactive)
[5]
  Kd: > 30 µM (inactive)

## CCn1c(=O)c(-c2cc[nH]n2)cc2c(C)nc(N)nc21 [VOXTALISIB]
[1]
  Kd: > 30 µM (inactive)
Deoxycytidine kinase
  Kd: > 30 µM (inactive)
[2]
  Kd: > 30 µM (inactive)
[3]
  Kd: > 30 µM (inactive)
[4]
  Kd: > 30 µM (inactive)
Ephrin type-A receptor 5
  Kd: > 30 µM (inactive)
[5]
  Kd: > 30 µM (inactive)

## Cc1ccc(NC(=O)c2ccc(CN3CC[C@H](N(C)C)C3)c(C(F)(F)F)c2)cc1Nc1nccc(-c2cncnc2)n1 [BAFETINIB]
[1]
  Kd: > 30 µM (inactive)
Deoxycytidine kinase
  Kd: > 30 µM (inactive)
[2]
  Kd: > 30 µM (inactive)
[3]
  Kd: > 30 µM (inactive)
[4]
  Kd: > 30 µM (inactive)
Ephrin type-A receptor 5
  Kd: 0.345 µM
[5]
  Kd: > 30 µM (inactive)

## COc1ccc(-c2ccc3c(N4CCOC[C@@H]4C)nc(N4CCOC[C@@H]4C)nc3n2)cc1CO [AZD-8055]
[1]
  Kd: > 30 µM (inactive)
Deoxycytidine kinase
  Kd: > 30 µM (inactive)
[2]
  Kd: > 30 µM (inactive)
[3]
  Kd: > 30 µM (inactive)
[4]
  Kd: > 30 µM (inactive)
Ephrin type-A receptor 5
  Kd: > 30 µM (inactive)
[5]
  Kd: > 30 µM (inactive)

## Cn1cc(-c2ccc(F)c(C(F)(F)F)c2)nc1C1CCN(c2ncnc3[nH]ncc23)CC1 [LY-2584702]
[1]
  Kd: > 30 µM (inactive)
Deoxycytidine kinase
  Kd: > 30 µM (inactive)
[2]
  Kd: > 30 µM (inactive)
[3]
  Kd: > 30 µM (inactive)
[4]
  Kd: > 30 µM (inactive)
Ephrin type-A receptor 5
  Kd: > 30 µM (inactive)
[5]
  Kd: > 30 µM (inactive)

## CNC(=O)CN1CCC(Oc2cc3c(Nc4cccc(Cl)c4F)ncnc3cc2OC)CC1 [SAPITINIB]
[1]
  Kd: > 30 µM (inactive)
Deoxycytidine kinase
  Kd: > 30 µM (inactive)
[2]
  Kd: > 30 µM (inactive)
[3]
  Kd: 0.176 µM (active)
[4]
  Kd: > 30 µM (inactive)
Ephrin type-A receptor 5
  Kd: 0.835 µM (active)
[5]
  Kd: > 30 µM (inactive)

## COc1cc(CCc2cc(NC(=O)c3ccc(N4C[C@@H](C)N[C@@H](C)C4)cc3)n[nH]2)cc(OC)c1 [AZD-4547]
[1]
  Kd: > 30 µM (inactive)
Deoxycytidine kinase
  Kd: > 30 µM (inactive)
[2]
  Kd: > 30 µM (inactive)
[3]
  Kd: > 30 µM (inactive)
[4]
  Kd: > 30 µM (inactive)
Ephrin type-A receptor 5
  Kd: > 30 µM (inactive)
[5]
  Kd: 0.11 µM (active)
